The values below come from publication PMC5372361 (Scientific Reports, 2017).

For assay [1], the target named is T1, equine serum BChE (Equus caballus, UniProt P81908).
T1 construct: We used human erythrocyte AChE, equine serum BChE, and porcine liver CaE; purchased Sigma-Aldrich (Germany); host or cells: equine serum
Nature of the assay: biochemical. Particulars: for inhibition at 20 µM: read-out: inhibition % at 20 μM, BChE.
Protocol: (§1) The AChE and BChE activities were measured by the method of Ellman and co-workers as described earlier[75]. The assay solution consisted of 0.1 M K/Na phosphate buffer (pH 7.5, 25 °C) with the addition of 0.33 mM DTNB, 0.02 unit/mL of AChE or BChE, and 1 mM of substrate (ATCh or BTCh, respectively). The assays were carried out with a blank containing all components except ATCh and BTCh in order to take account of a non-enzymatic reaction.
(§2) The test compounds were dissolved in DMSO; the incubation mixture contained 2% of the solvent. […] The test compounds were added to the assay solution and pre-incubated at 25 °C with the enzymes for 10 min followed by the addition of the substrate. A parallel control was made for the assay solution with no inhibitor. Measurements were performed in a FLUOStar OPTIMA multifunctional reader (BMG Labtech, Germany). Each experiment was performed in triplicate. The results were expressed as the mean ± SEM. The reaction rates in the presence and absence of inhibitor were compared, and the percentage of residual enzyme activity due to the presence of test compounds was calculated.

The target in assay [2] is T2, tubulin (Sus scrofa, UniProt P02550+P02554).
T2 construct: purchased Cytoskeleton, Inc., Denver, USA
The assay can be described thus: Tubulin polymerization to microtubules (absorbance at 355 nm). Particulars: read-out: (dA355/dt)max, % of control. The assay is classed as biochemical. The method, then:
The primary screening for the effect on tubulin polymerization in vitro was performed using a commercial tubulin in the presence of 0.1 mM of the carbazole–aminoadamantane conjugates. In blank probes, tubulin (40 μM) polymerization in the presence of 10% DMSO (as in the case of test probes) leads to absorbance increase after a rather long (80–120 minutes) lag period. […] The results are summarized in Table 3 as the maximum rate of absorbance increase for a tubulin- microtubules suspension normalized to the blank value.
The assembly of tubulin into microtubules was carried out using pure tubulin from HTS- Tubulin polymerization assay kit (Cytoskeleton, Inc., Denver, USA). […] The standard polymerization reaction contained 100 μl of a 4 mg/ml tubulin solution in 80 mM PIPES (pH 6.9), 0.5 mM EGTA, 2 mM MgCl2, and 1 mM GTP. […] The parameter Vmax = (dA355/dt)^max normalized to control probes (%) was used to compare the action of the compounds. Electron microscopic monitoring was carried out on Carl Zeiss Libra 120 Electron Microscope (Carl Zeiss Meditec AG, Jena, Germany) at 120 kV using negative countstaining.

Assay [3] concerns the target T3, porcine liver CaE (Sus scrofa, UniProt Q29550).
T3 sequence (Q29550 19-566): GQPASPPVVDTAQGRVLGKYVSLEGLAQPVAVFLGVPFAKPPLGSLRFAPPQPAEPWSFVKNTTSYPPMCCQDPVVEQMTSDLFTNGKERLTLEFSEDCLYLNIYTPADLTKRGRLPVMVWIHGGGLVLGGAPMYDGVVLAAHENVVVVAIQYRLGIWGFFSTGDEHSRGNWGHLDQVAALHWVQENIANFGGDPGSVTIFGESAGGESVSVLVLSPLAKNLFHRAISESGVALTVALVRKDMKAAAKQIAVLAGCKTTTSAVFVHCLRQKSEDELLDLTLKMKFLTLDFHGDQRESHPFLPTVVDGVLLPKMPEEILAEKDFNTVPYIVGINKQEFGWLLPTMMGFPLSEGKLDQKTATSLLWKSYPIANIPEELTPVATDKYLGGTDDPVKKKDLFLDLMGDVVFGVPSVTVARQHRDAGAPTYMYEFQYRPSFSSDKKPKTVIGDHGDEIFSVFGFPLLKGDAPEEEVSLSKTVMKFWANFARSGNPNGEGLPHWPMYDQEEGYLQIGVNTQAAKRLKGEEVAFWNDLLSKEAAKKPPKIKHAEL
Nature of the assay: In vitro CaE inhibition (4-nitrophenyl acetate hydrolysis). The assay is classed as biochemical. The note with it: for inhibition at 20 µM: 20 μM of compound. The method, then:
Acetylcholinesterase (AChE, EC 3.1.1.7, from human erythrocyte), butyrylcholinesterase (BChE, EC 3.1.1.8, from equine serum), carboxylesterase (CaE, EC 3.1.1.1, from porcine liver), acetylthiocholine iodide (ATCh), butylthiocholine iodide (BTCh), 5,5′-dithiobis-(2-nitrobenzoic acid) (DTNB), and 4-nitrophenol acetate (4-NPA), were purchased from Sigma-Aldrich (Germany).
The activity of CaE was determined spectrophotometrically by the release of 4-nitrophenol at 405 nm[76]. The assay solution consisted of 0.1 M K/Na phosphate buffer (pH 8.0, 25 °C) with the addition of 1 mM 4-nitrophenyl acetate and 0.02 unit/mL of CaE. The assays were carried out with a blank containing all components except CaE.
The test compounds were dissolved in DMSO; the incubation mixture contained 2% of the solvent. […] The test compounds were added to the assay solution and pre-incubated at 25 °C with the enzymes for 10 min followed by the addition of the substrate. A parallel control was made for the assay solution with no inhibitor. […] Each experiment was performed in triplicate. The results were expressed as the mean ± SEM. The reaction rates in the presence and absence of inhibitor were compared, and the percentage of residual enzyme activity due to the presence of test compounds was calculated.

For assay [4], the target named is T4, human erythrocyte AChE (Homo sapiens, UniProt P22303).
T4 construct: We used human erythrocyte AChE, equine serum BChE, and porcine liver CaE; purchased Sigma-Aldrich (Germany); host or cells: human erythrocyte
Nature of the assay: biochemical. The note with it: for inhibition at 20 µM: read-out: inhibition % at 20 μM, AChE.
Protocol: as §1, §2

Assay [5] concerns the target T5, MK-801 binding (intrachannel) site of NMDA receptor (Rattus norvegicus, UniProt P35439).
T5 construct: we used a membrane preparation of rat cerebral hippocampus; from tissue; host or cells: rat hippocampal membranes
Nature of the assay: Radioligand binding, competition with [3H]MK-801. The note with it: rat hippocampal membranes.
Protocol: (§3) Two radioactive ligands were used: [^3H]
(§4) The obtained membrane pellet was resuspended in a work buffer (5 mM HEPES/4.5 mM Tris buffer, pH 7.6) in a ratio of 1:5 and stored in liquid nitrogen. The reaction mixture (the final volume of 0.5 ml) contained 200 μl of the working buffer, 50 μl of 50 nM radioligand solution, and 250 μl of the membrane suspension. Nonspecific binding was determined in the presence of 50 μl of 1 mM of unlabeled ligand.
(§5) For binding study, the reaction mixture was incubated at room temperature for 2 hours. After incubation, the samples were filtered through GF/B glass-fiber filters (Whatman), washed with the work buffer, dried, and transferred to scintillation vials to which 5 ml of scintillation fluid was added containing 4 g of diphenyloxazole (PPO), 0.2 g of diphenyloxazoil benzene (POPOP), and 1 liter of toluene.
(§6) The effect of the test compounds on the binding of [^3H]

In assay [6] the target is T6, ifenprodil binding site of NMDA receptors containing NR2B subunits (Rattus norvegicus, UniProt P35439+Q00960).
T6 construct: we used a membrane preparation of rat cerebral hippocampus; from tissue; host or cells: rat hippocampal membranes
The assay can be described thus: Radioligand binding, competition with [3H]ifenprodil. Particulars: rat hippocampal membranes.
Protocol: as §3, §4, §5, §6

Assay [7] has as its system SH-SY5Y neuroblastoma cells. Nature of the assay: Ionomycin-induced toxicity in SH-SY5Y neuroblastoma cells (MTT test). The assay is classed as cell-based, human. The note with it: 3 μM ionomycin, 24 hours. The method, then: The human neuroblastoma cell line SH-SY5Y was used for all experiments. The cells were cultured in a humidified, 5% (v/v) CO2-controlled environment at 37 °C, and grown in MEM/F12 culture medium supplemented with 15% fetal bovine serum (FBS), 100 U/mL penicillin, and […][90].
The cell viability was evaluated as the dehydrogenase activity with the 3-(4,5-dimethylthiazol-2-yl)-2,5-diphenyltetrazolium bromide (MTT) assay. Briefly, the SH-SY5Y cells were incubated with 0.1 and 1 μM of a test compound or an equal volume of the vehicle (<1% of the whole volume of the medium under the layer of cells) and 3 μM ionomycine for 24 h. The absorbance was measured at 570 nm using a Victor microplate reader (Perkin Elmer).

Setting [8] is: equine serum BChE, pH 7.5, 25 °C, 10 min pre-incubation, read-out: IC50 ± SEM, BChE.

Molecules are shown by their SMILES. Read-outs that look alike come from different tables or passages of the source. Bounds are passed on as bounds.

T4 sequence (P22303 32-617 isoform P22303-2 limits assumed): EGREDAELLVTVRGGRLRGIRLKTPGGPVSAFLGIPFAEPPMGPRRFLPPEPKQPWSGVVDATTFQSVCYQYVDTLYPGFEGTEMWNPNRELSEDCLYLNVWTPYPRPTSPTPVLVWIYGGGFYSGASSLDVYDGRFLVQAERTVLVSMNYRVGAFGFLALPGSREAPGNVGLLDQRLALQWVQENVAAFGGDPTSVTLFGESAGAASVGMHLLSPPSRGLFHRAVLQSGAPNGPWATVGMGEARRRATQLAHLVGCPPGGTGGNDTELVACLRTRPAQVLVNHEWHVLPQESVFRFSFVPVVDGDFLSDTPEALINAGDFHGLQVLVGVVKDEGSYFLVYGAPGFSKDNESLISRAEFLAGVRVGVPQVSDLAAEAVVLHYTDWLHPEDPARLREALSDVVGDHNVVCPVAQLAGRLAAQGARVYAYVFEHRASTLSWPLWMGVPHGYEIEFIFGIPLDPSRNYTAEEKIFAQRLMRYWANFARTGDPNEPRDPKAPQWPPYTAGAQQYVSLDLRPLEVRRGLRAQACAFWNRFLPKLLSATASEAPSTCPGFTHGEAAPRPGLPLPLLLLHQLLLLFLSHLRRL
T2 sequence (P02550 whole entry): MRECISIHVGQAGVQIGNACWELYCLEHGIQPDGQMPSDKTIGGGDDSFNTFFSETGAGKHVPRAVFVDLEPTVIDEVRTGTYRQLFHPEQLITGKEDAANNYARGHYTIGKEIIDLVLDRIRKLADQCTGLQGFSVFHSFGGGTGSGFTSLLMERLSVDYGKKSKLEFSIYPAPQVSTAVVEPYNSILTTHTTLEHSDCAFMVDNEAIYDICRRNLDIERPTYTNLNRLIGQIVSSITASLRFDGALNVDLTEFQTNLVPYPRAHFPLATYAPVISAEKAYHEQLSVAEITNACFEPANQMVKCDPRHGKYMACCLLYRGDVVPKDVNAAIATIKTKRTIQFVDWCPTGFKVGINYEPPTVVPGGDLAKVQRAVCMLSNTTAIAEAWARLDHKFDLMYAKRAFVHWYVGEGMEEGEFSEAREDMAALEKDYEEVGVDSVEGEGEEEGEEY
T2 sequence (P02554 whole entry): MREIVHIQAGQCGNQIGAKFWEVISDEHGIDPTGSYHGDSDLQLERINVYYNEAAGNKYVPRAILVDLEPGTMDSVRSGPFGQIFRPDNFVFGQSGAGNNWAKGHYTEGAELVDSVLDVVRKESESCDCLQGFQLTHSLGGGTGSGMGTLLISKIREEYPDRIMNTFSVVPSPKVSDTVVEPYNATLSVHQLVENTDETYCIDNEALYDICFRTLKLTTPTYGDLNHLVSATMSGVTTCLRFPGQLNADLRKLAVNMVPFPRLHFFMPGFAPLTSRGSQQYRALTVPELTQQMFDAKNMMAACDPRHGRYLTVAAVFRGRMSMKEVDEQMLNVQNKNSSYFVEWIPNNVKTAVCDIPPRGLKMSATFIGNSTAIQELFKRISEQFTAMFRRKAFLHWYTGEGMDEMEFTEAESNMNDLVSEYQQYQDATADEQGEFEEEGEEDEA
T1 sequence (P81908 whole entry): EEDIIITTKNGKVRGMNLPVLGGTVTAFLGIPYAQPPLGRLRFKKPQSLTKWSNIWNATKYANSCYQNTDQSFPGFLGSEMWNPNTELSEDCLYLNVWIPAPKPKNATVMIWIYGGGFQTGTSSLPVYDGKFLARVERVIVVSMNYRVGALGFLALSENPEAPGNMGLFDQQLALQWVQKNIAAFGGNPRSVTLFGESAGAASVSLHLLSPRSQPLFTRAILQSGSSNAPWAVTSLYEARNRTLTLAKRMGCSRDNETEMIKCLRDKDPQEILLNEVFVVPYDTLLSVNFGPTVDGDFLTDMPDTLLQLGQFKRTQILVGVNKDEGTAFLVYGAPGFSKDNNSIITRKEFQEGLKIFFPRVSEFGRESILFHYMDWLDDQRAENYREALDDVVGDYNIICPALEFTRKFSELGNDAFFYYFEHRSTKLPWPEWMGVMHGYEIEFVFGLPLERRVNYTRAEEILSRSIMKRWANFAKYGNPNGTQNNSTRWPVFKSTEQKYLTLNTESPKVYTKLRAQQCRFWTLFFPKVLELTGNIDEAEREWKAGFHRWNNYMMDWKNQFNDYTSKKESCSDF
T6 sequence (Q00960 27-1482, other chains not shown): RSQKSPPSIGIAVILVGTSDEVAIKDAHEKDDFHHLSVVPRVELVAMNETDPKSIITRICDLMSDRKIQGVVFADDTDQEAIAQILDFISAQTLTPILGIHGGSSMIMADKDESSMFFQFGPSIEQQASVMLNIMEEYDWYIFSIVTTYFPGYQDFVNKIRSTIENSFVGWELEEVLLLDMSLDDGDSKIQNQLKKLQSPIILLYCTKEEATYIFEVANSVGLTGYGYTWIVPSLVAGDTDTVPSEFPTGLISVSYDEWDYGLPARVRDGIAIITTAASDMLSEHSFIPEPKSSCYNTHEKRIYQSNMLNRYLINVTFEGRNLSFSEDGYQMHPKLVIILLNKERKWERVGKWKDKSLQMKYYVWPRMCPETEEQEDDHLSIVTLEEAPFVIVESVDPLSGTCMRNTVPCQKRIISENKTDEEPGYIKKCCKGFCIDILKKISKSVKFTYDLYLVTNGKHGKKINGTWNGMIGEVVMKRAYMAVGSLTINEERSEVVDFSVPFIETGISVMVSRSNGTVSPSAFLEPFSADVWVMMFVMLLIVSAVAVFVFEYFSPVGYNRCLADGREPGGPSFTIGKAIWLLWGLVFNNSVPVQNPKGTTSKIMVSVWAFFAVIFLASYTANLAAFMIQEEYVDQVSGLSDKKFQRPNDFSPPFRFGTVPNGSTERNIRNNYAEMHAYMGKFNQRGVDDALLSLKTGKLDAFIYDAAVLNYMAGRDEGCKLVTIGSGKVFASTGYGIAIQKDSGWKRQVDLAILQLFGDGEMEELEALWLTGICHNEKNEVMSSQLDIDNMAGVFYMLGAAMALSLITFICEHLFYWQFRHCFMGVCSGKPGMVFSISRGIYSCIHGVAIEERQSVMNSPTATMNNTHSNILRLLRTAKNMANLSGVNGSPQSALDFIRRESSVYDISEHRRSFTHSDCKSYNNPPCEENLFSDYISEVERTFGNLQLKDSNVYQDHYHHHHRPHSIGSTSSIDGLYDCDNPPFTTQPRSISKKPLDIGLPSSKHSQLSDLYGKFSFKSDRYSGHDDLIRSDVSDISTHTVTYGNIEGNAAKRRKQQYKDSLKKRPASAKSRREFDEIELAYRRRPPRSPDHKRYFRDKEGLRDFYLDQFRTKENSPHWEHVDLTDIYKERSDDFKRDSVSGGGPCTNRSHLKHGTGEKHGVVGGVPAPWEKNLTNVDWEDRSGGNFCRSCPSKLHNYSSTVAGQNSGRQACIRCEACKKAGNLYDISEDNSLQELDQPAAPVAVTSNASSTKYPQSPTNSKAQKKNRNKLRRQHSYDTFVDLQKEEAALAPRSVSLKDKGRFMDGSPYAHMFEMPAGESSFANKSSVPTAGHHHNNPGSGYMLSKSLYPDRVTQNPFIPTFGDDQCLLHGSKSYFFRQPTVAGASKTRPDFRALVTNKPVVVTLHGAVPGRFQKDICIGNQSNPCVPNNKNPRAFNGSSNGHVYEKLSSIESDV

For the compound `c1ccc2c(c1)[nH]c1ccccc12` [Carbazole], the half-inhibitory concentration (IC50) in assay [1] and in assay [4] was > 20 µM each time. Besides, the inhibition at 20 µM in assay [1] worked out at 16.1%; in assay [3], 9.4%; in assay [4] it was 1.8%. Besides, in assay [2], the maximum polymerization rate, % of control at 100 µM was found to be 123 ± 12%.

Consider `CC(=O)O[C@H]1C(=O)[C@@]2(C)[C@H]([C@H](OC(=O)c3ccccc3)[C@]3(O)C[C@H](OC(=O)[C@H](O)[C@@H](NC(=O)c4ccccc4)c4ccccc4)C(C)=C1C3(C)C)[C@]1(OC(C)=O)CO[C@@H]1C[C@@H]2O` [Paclitaxel], for which the remaining activity at 5 µM in assay [2] (5 μM, 100% = vehicle control (10% DMSO)) was determined as 487 ± 32%.

As for `CC12CC3CC(C)(C1)CC(N)(C3)C2.Cl` [Memantine, 1-amino-3,5-dimethyladamantane hydrochloride], in assay [5], the “% of [3H]МК-801 blockade at 100 μM of compound” value amounted to 100%. Besides, the IC50 in assay [1] (setting [8]) was > 20 µM; in assay [4] (read-out: IC50 ± SEM, AChE) it was > 20 µM. Moreover, the inhibition at 20 µM is 13.7% in assay [1], 3% in assay [3] and 1.3% in assay [4]. Also, the maximum polymerization rate, % of control at 100 µM in assay [2] came out at 89 ± 7%. Further, the “% of [3H]ifenprodil blockade at 100 μM of compound” value in assay [6] is 11.2 ± 1.1%.

Regarding `NC12CC3CC(CC(C3)C1)C2` [Amantadine], in assay [5], the “% of [3H]МК-801 blockade at 100 μM of compound” value was found to be 57.2 ± 5.5%. Further, the inhibition at 20 µM in assay [1] (20 μM of compound) stood at 6.9%; in assay [3] it was 3.2%. In assay [1] (setting [8]), the IC50 was > 20 µM. The remaining activity at 100 µM in assay [2] (at 100 μM of compound, 100% = vehicle control (10% DMSO)) amounted to 98 ± 16%. Besides, in assay [6], the “% of [3H]ifenprodil blockade at 100 μM of compound” value was 44.6 ± 4.6%.

`O=[N+]([O-])c1ccc(OP(=O)(O)Oc2ccc([N+](=O)[O-])cc2)cc1` [BNPP, Bis-4-nitrophenyl phosphate]: the IC50 in assay [3] (porcine liver CaE, pH 8.0, 25 °C, read-out: IC50 ± SEM, CaE) was found to be 1800 ± 110 nM.

For `C[C@H](CCC(=O)O)C[C@H](C)C[C@H](C)C(=O)/C=C(\O)[C@H](C)C[C@H](C)C/C=C/[C@@H](C)[C@@H](O)[C@@H](C)[C@@H](O)C[C@@H]1CC[C@@](C)([C@H]2CC[C@@](C)([C@@H](C)O)O2)O1` [ionomycin], the “reduction of neuroblastoma cell survival” value in assay [7] was 36 ± 4%.

Usually IC50 stands for the midpoint of a concentration-inhibition curve. A word on the inhibition: it is the share of the control response that was lost under treatment.
